The source of these data is patent publication US20260014184A1, “ADENOSINE DERIVATIVES FOR USE IN THE TREATMENT OF NEURODEGENERATIVE DISORDERS AND CANCER” (UNIVERSITY COLLEGE CARDIFF CONSULTANTS LIMITED, priority 2022, published 2026).

Format in all cases: cell-based
For assay [1], the system named is Ub Ser65 phosphorylation. The experiment in a line: Phospho-Ub (Ub Ser65) immunoblotting in parkin- or YFP-parkin-transfected HeLa cells. The note with it: for inhibition of PINK1-mediated ubiquitin phosphorylation (summary statement): in cells and astrocytes, induced by mitochondrial depolarizing agents CCCP and niclosamide. The protocol:
(§1) Both HeLa and parkin-overexpressed HeLa cells were maintained in DMEM high glucose (Gibco), 10% FBS (Sigma-Aldrich) at 37° C. with 5% CO2. For experiments, cells were counted and seeded into a range of culture plates, depending on the experiment, cell counting was done using the Cellometer Auto T4 with TrypanBlue (Gibco). […] Alternatively, HeLa cells were seeded in well plates and then transfected with […] of parkin cDNA using the PEI method once the plated cells reached 60% confluency. After 6 hours, the media was changed. Sub-culturing was done when the cells reached ˜90% confluency.
(§2) Cell culture with 70-80% confluency was lysed as follows: cells were washed with Phosphate Buffer Saline (PBS) (Sigma). 150 μl of lysis buffer was used on each well containing either: • 50 mM Tris-HCl pH 7.5, 1 mM EDTA, 1 mM EGTA, 0.27 M sucrose, 1 mM Na3VO4, 50 mM NaF, 5 mM Na pyrophosphate and fresh 1 mM benzamidine, 1% NP-40 and […]; or • 50 mM Tris-HCl pH 7.5, 1 mM EDTA, 1 mM EGTA, 10 mM Na β-glycerophosphate, 0.27 M sucrose, 1 mM Na3VO4, 50 mM NaF, 10 mM Na pyrophosphate with fresh 1 mM benzamidine, 1% Triton X-100, complete EDTA-free Protease Inhibitor, Phosphatase inhibitor cocktail 3 and 100 μM of 2-chloroacetamide.
(§3) The cells were scrapped and transferred to the microtube and eventually spun down at 12,000 rpm for 15 minutes at 4° C. Finally, the supernatant was transferred to the new microtubes and stored at −20° C. Protein concentration was measured using Bradford Assay. Serial concentrations 0.125; 0.25; 0.5 and 1 mg/ml of Bovine Serum Albumin (BSA) (Sigma Aldrich) were used as a standard. Samples were boiled at 90° C. for 5 minutes in SDS sample loading buffer.
The next day membranes were washed in TBST and incubated with horse radish peroxidase (HRP)-conjugated antibodies for 1 h at room temperature with agitation. Following TBST washes, proteins were visualised using Amersham™ ECL™ Prime kit (GE Biosciences) and imaged using the Bio-rad ChemicDoc. Primary antibodies used for western blotting; GAPDH (Abcam cat #ab9485), Phospho-Ub Ser 65 (Sigma-Aldrich cat #ABS1513-1), LC3B (Cell Signaling cat #3868S). Secondary antibodies used for western blotting; anti-rabbit HRP (Agilent Dako cat #P0399), anti-mouse HRP (Agilent Dako cat #P0260).
To explore this, we first treated parkin-transfected HeLa cells for 24 h with 50 μM kinetin, kinetin riboside or kinetin riboside ProTide, a monophosphate prodrug of kinetin riboside.

For assay [2], the system named is Ub Ser65 phosphorylation. The experiment in a line: Immunofluorescence for Ub Ser65 phosphorylation in YFP-parkin transfected HeLa cells. The note with it: immunofluorescence; for impact on ubiquitin phosphorylation, compound alone: 50 μM, 24 h, no niclosamide or CCCP. Here is the method:
(§4) Cells were seeded on PerkinElmer PhenoPlate 96-well plates, followed by treatment with compounds. Cells were fixed in chilled 4% PFA for 10 min followed by washes in PBS. […] Following PBS washes, cells were blocked using blocking buffer (PBS, 5% BSA, 0.1% Tween20) for 1 h at room temperature. Primary antibodies were diluted in blocking buffer and added to cells to be incubated overnight at 4° C. Cells were subsequently washed with PBS-T and the appropriate secondary antibodies (diluted in blocking buffer) were added for 2 h at room temperature in darkness. 10 μg/ml of Hoechst 33258 stain was added with secondary antibodies when required. Cells were again washed with PBS-T followed by addition of PBS with 0.02% sodium azide. Cells were then stored at 4° C. until ready for imaging. Primary antibodies used for immunofluorescence are as follows: Phospho-Ub Ser 65 (Sigma-Aldrich cat #ABS1513-1), TOM20 (Santa-Cruz cat #sc-17764). Secondary antibodies and stains used in immunofluorescence; Anti-IgG2a Alexa Fluor™ 546 (ThermoFisher cat #A21133) Anti-rabbit Alexa Fluor™ 647 (ThermoFisher cat #A21244), Hoechst 33258 stain (Sigma-Aldrich cat #B2883).
(§5) Confocal microscopy was performed using a Zeiss LSM800 w/Airyscan fluorescent microscope equipped with lasers emitting at 405 nm, 488 nm, 561 nm and 640 nm. All images were captured using a 40x oil immersion objective lens and processed using Zeiss ZEN software. Images were analysed and quantified using Columbus (PerkinElmer) and TIBCO Spotfire software.
(§6) First, HeLa cells transfected with YFP-parkin were either left untreated or treated with 50 μM kinetin riboside, nucleosides 9a and 9c for 24 h.

For assay [3], the system named is HeLa cells transfected with YFP-parkin. The assay is described as follows: Immunofluorescence for YFP-parkin localisation and TOM20 (mitochondrial fragmentation). The note with it: for parkin localisation to the mitochondria after pre-treatment followed by CCCP, compared to CCCP alone: 50 μM 24 h, then 10 μM CCCP; for impact on mitochondrial fragmentation (TOM20), compound alone / impact on parkin localisation, compound alone: 50 μM, 24 h, no niclosamide or CCCP. Here is the method:
as §4, §5, §6

The target in a further assay is T1, PINK1 (Homo sapiens, UniProt Q9BXM7).
T1 construct: HeLa cells, which express PINK1 endogenously; endogenous in cells; host or cells: HeLa cells transiently transfected with parkin
The assay is described as follows: PINK1 activation in cells judged by parkin Ser65 phosphorylation (parkin-transfected HeLa cells). The note with it: 50 μM, 1 h. Here is the method: as §1, §2, §3

The subject of assay [4] is immortalised MEF expressing PINK1 wild-type (WT). The assay is described as follows: MitoQC mitophagy assay, MEF expressing PINK1 wild-type. The note with it: 5 μM, 24 h. The source says: (§7) With the inhibition of ubiquitin phosphorylation and parkin localisation to the mitochondria by kinetin riboside and the nucleoside analogue 9c, we next asked whether these compounds still induce mitophagy in a PINK1 dependent manner. To explore this, we employed the established MitoQC assay for measuring mitophagy in cells^11,12.

Another assay concerns PINK1 KO MEFs. The assay is described as follows: MitoQC mitophagy assay, PINK1 knock-out MEF. To be noted: 5 μM, 24 h.
Text: as §7

T1 sequence (Q9BXM7 78-581): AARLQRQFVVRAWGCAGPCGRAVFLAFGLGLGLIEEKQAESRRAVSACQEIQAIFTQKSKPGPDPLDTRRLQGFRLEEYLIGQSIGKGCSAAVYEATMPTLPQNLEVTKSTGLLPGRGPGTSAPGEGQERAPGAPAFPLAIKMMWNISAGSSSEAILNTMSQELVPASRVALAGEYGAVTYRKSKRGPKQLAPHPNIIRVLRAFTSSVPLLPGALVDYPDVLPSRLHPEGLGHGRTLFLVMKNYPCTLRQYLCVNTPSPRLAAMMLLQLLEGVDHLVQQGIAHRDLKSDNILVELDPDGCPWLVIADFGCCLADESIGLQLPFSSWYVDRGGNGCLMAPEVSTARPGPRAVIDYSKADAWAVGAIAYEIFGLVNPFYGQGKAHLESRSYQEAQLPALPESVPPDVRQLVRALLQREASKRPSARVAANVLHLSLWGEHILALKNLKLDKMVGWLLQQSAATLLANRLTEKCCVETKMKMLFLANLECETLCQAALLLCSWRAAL

`OC[C@H]1O[C@@H](n2cnc3c(NCc4ccccc4)ncnc32)[C@H](O)[C@@H]1O` [9c, (2R,3R,4S,5R)-2-(6-(benzylamino)-9H-purin-9-yl)-5-(hydroxymethyl)tetrahydrofuran-3,4-diol]: in the assay with Ub Ser65 phosphorylation [1], the “inhibition of PINK1-mediated ubiquitin phosphorylation (summary statement)” value is on record as “inhibit ubiquitin phosphorylation”. In the assay on Ub Ser65 phosphorylation [2] (50 μM 24 h, then 10 μM CCCP), the “reduction in ubiquitin phosphorylation and parkin localisation compared with kinetin riboside” value is reported as “appears stronger than that induced by kinetin riboside”; the “ubiquitin Ser65 phosphorylation after pre-treatment followed by CCCP, compared to CCCP alone” value was “significant reduction”. For the same molecule, the “impact on ubiquitin phosphorylation, compound alone” value with Ub Ser65 phosphorylation [2] is given as “did not have any impact”. For the same molecule, in assay [3], the “parkin localisation to the mitochondria after pre-treatment followed by CCCP, compared to CCCP alone” value is given as “significant reduction”; the “impact on mitochondrial fragmentation (TOM20), compound alone” value is “did not have any impact”; the “impact on parkin localisation, compound alone” value is listed as “did not have any impact”. In addition, the “activation of PINK1 as judged by parkin Ser65 phosphorylation” value at PINK1 is “low level activation of PINK1”. For the same molecule, in assay [4], the “level and PINK1 dependence of mitophagy (WT versus KO MEFs)” value is “low level of mitophagy in a PINK1-dependent manner”; the “mitophagy in PINK1 WT MEFs” value was “induced mitophagy”. Further, in the assay on PINK1 KO MEFs, the “mitophagy in PINK1 KO MEFs” value is “not observed”.
Consider `OC[C@H]1O[C@@H](n2cnc3c(NCc4ccco4)ncnc32)[C@H](O)[C@@H]1O` [kinetin riboside, N^6-(2-furanylmethyl) adenosine], for which, in the assay with Ub Ser65 phosphorylation [1] (YFP-parkin HeLa cells, 50 μM 24 h, then 10 μM CCCP 1 h, immunoblot), the “inhibition of CCCP-induced phosphorylation of ubiquitin by pre-treatment” value was “inhibited”. In the assay with Ub Ser65 phosphorylation [1] (YFP-parkin HeLa cells, 50 μM 24 h, then 10 μM niclosamide 1 h, immunoblot), the “inhibition of niclosamide-induced phosphorylation of ubiquitin by pre-treatment” value was “inhibited”. Also, in the assay with Ub Ser65 phosphorylation [1], the “inhibition of PINK1-mediated ubiquitin phosphorylation (summary statement)” value was “inhibit ubiquitin phosphorylation”. Moreover, the “inhibition of CCCP-induced phosphorylation of ubiquitin by pre-treatment” value in the assay on Ub Ser65 phosphorylation [1] (parkin-transfected HeLa cells, 50 μM 24 h, then 10 μM CCCP 3 h, immunoblot) is “inhibited the CCCP-induced phosphorylation of ubiquitin”. Further, the “phosphorylation of ubiquitin (Ub Ser65), compound alone” value in the assay on Ub Ser65 phosphorylation [1] (parkin-transfected HeLa cells, 50 μM, 24 h, no CCCP, immunoblot) is on record as “did not lead to any notable phosphorylation of ubiquitin”. Also, the “ubiquitin Ser65 phosphorylation after pre-treatment followed by CCCP, compared to CCCP alone” value with Ub Ser65 phosphorylation [2] (50 μM 24 h, then 10 μM CCCP) is listed as “inhibited”. In addition, the “impact on ubiquitin phosphorylation, compound alone” value in the assay with Ub Ser65 phosphorylation [2] was “did not have any impact”. Moreover, in the assay on Ub Ser65 phosphorylation [2] (YFP-parkin HeLa cells, 50 μM 24 h prior to 10 μM niclosamide or CCCP 1 h), the “inhibition of ubiquitin phosphorylation by pre-treatment” value is “inhibited ubiquitin phosphorylation”. Further, in assay [3], the “parkin localisation to the mitochondria after pre-treatment followed by CCCP, compared to CCCP alone” value is “inhibition”; the “impact on mitochondrial fragmentation (TOM20), compound alone” value is on record as “did not have any impact”; the “impact on parkin localisation, compound alone” value is on record as “did not have any impact”. Besides, at PINK1, the “activation of PINK1 as judged by parkin Ser65 phosphorylation” value is reported as “low level activation of PINK1”. Further, in assay [4], the “level and PINK1 dependence of mitophagy (WT versus KO MEFs)” value is “low level of mitophagy in a PINK1-dependent manner”; the “mitophagy in PINK1 WT MEFs” value was “induced mitophagy”. In addition, the “mitophagy in PINK1 KO MEFs” value in the assay on PINK1 KO MEFs was “not observed”.
